Results as given in the supplement of paper PMC10307832.

How the values were obtained:
Assay in all cases: relative viability (nuclei count vs DMSO), 5 days (fraction); higher = more cells survive
[1] = compound: OCc1c[nH]c2ccccc12 [Indole-3-carbinol] + CC(C)C[C@H](NC(=O)[C@H](Cc1ccccc1)NC(=O)c1cnccn1)B(O)O [Bortezomib] (partner 0.002 µM)
Procedure, shortened: (§1)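 Relative viability equals treated-well nuclei counts divided by vehicle-well nuclei counts. Counts came from 4× images of lung cancer cell lines grown in 1536-well plates for 5 days after pin-tool dosing on the day after seeding. Dosing used one drug alone or a fixed anchor-drug dose plus five library-drug doses (not always all listed) in √10 steps, and values are medians of duplicate plates.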

[2] = compound: OCc1c[nH]c2ccccc12 [Indole-3-carbinol] + CS(=O)(=O)CCNCc1ccc(-c2ccc3ncnc(Nc4ccc(OCc5cccc(F)c5)c(Cl)c4)c3c2)o1 [Lapatinib] (partner 2 µM)
Procedure, shortened: as §1

[3] = compound: OCc1c[nH]c2ccccc12 [Indole-3-carbinol] + CC1(C)CCC(c2ccc(Cl)cc2)=C(CN2CCN(c3ccc(C(=O)NS(=O)(=O)c4ccc(N[C@H](CCN5CCOCC5)CSc5ccccc5)c(S(=O)(=O)C(F)(F)F)c4)cc3)CC2)C1 [Navitoclax] (partner 0.5 µM)
Procedure, shortened: as §1

[4] = compound: OCc1c[nH]c2ccccc12 [Indole-3-carbinol] + COc1cccc2cc(-c3nc([C@H]4CC[C@H](C(=O)O)CC4)n4ncnc(N)c34)[nH]c12 [OSI-027] (partner 0.5 µM)
Procedure, shortened: as §1

[5] = compound: OCc1c[nH]c2ccccc12 [Indole-3-carbinol] + CS(=O)(=O)N1CCN(Cc2cc3nc(-c4cccc5[nH]ncc45)nc(N4CCOCC4)c3s2)CC1 [Pictilisib] (partner 1 µM)
Procedure, shortened: as §1

Cell Line | relative viability ([1]; first compound 0.253 µM) | relative viability ([1]; first compound 0.8 µM) | relative viability ([1]; first compound 2.53 µM) | relative viability ([1]; first compound 8 µM) | relative viability ([2]; first compound 0.253 µM) | relative viability ([2]; first compound 0.8 µM) | relative viability ([2]; first compound 2.53 µM) | relative viability ([2]; first compound 8 µM) | relative viability ([3]; first compound 0.253 µM) | relative viability ([3]; first compound 2.53 µM) | relative viability ([3]; first compound 8 µM) | relative viability ([4]; first compound 0.253 µM) | relative viability ([4]; first compound 2.53 µM) | relative viability ([4]; first compound 8 µM) | relative viability ([5]; first compound 0.253 µM) | relative viability ([5]; first compound 2.53 µM) | relative viability ([5]; first compound 8 µM) | relative viability ([3]; first compound 0.8 µM) | relative viability ([4]; first compound 0.8 µM) | relative viability ([5]; first compound 0.8 µM)
NCI-H647 | 1.15 | 0.718 | 1.04 | 0.883 | 1.24 | 0.904 | 0.87 | 0.969 | 1.16 | 1.09 | 1.01 | 0.595 | 0.826 | 0.497 | 0.469 | 0.489 | 0.437 | – | – | –
NCI-H2009 | 1.14 | 1.09 | 0.998 | 0.933 | 1.02 | 0.929 | 0.695 | 0.872 | 1.16 | 1.18 | 1.02 | 0.572 | 0.649 | 0.604 | 0.842 | 0.763 | 0.837 | 1.2 | 0.677 | 0.743
EPLC-272H | 1.27 | 0.925 | 0.985 | 0.837 | 1.3 | 0.851 | 1.04 | 0.716 | 1.32 | 1.26 | 0.988 | 0.252 | 0.333 | 0.218 | 0.337 | 0.293 | 0.298 | 1.08 | 0.299 | 0.329
NCI-H520 | 0.543 | 0.613 | 0.498 | 0.563 | 0.899 | 0.838 | 0.868 | 0.742 | 1.12 | 1.14 | 1.12 | 0.25 | 0.258 | 0.274 | 0.287 | 0.27 | 0.254 | 0.999 | 0.189 | 0.255
NCI-H2405 | 0.985 | 0.983 | 1 | 0.963 | 1.06 | 1.08 | 1.16 | 1.02 | 1.06 | 0.964 | 0.837 | 0.617 | 0.633 | 0.656 | 0.49 | 0.489 | 0.483 | 0.563 | 0.676 | 0.472
NCI-H2085 | 1.07 | 1.15 | 1.14 | 0.967 | 0.855 | 0.789 | 0.8 | 0.828 | 1.1 | 1.15 | 1.05 | 0.76 | 0.747 | 0.684 | 0.41 | 0.444 | 0.503 | 1.02 | 0.884 | 0.389
NCI-H322M | 1.18 | 1.25 | 1.3 | 1.07 | 0.601 | 0.537 | 0.575 | 0.549 | 1.37 | 1.14 | 1.18 | 0.521 | 0.521 | 0.527 | 0.45 | 0.486 | 0.502 | 1.26 | 0.504 | 0.487
NCI-H1944 | – | – | – | – | 0.856 | 0.606 | 0.922 | 0.843 | 1.13 | 1.11 | 1.03 | 0.375 | 0.369 | 0.363 | 0.329 | 0.348 | 0.301 | 1.01 | 0.378 | 0.3
LC-2-ad | 1.13 | 1.11 | 0.994 | 0.974 | 0.977 | 0.974 | 0.893 | 0.938 | 0.644 | 0.376 | 0.399 | 0.888 | 0.826 | 0.787 | 0.439 | 0.466 | 0.464 | 0.553 | 0.776 | 0.502
NCI-H358 | – | – | – | – | 0.519 | 0.422 | 0.42 | 0.423 | – | – | – | 0.792 | 0.859 | 0.64 | 0.408 | 0.344 | 0.32 | – | 0.734 | 0.354
NCI-H2170 | – | – | – | – | 0.281 | 0.28 | 0.253 | 0.289 | 0.577 | 0.682 | 0.607 | 0.702 | 0.749 | 0.671 | 0.329 | 0.322 | 0.311 | 0.766 | 0.815 | 0.308
A-427 | 0.937 | 0.992 | 1.03 | 0.886 | 1.03 | 1 | 0.989 | 0.976 | 0.963 | 0.97 | 0.947 | 0.372 | 0.566 | 0.537 | 0.74 | 0.679 | 0.588 | 1.05 | 0.444 | 0.66
NCI-H1666 | 0.892 | 0.873 | 0.865 | 0.786 | 0.76 | 0.584 | 0.581 | 0.7 | 0.896 | 0.973 | 0.893 | 0.7 | 0.874 | 0.876 | 0.339 | 0.539 | 0.394 | 1.05 | 0.878 | 0.548
LOU-NH91 | 0.497 | 0.459 | 0.566 | 0.522 | 0.762 | 0.706 | 0.748 | 0.771 | 0.71 | 0.673 | 0.74 | 0.747 | 0.722 | 0.689 | 0.488 | 0.539 | 0.57 | 0.599 | 0.671 | 0.472
ABC-1 | 0.297 | 0.292 | 0.324 | 0.33 | 1.27 | 1.2 | 1.37 | 0.845 | – | – | – | 0.381 | 0.565 | 0.565 | 0.755 | 0.782 | 0.66 | – | 0.511 | 0.786
NCI-H1651 | 0.917 | 0.938 | 0.98 | 0.874 | 0.619 | 0.69 | 0.921 | 0.704 | 1.03 | 1.05 | 0.925 | 0.626 | 0.84 | 0.648 | 0.613 | 0.499 | 0.554 | 1.07 | 0.643 | 0.486
201T | 1.17 | 0.996 | 1.11 | 1.1 | 1.1 | 0.969 | 1.01 | 0.999 | 1.22 | 1.18 | 1.2 | 0.895 | 0.748 | 0.718 | 0.653 | 0.621 | 0.699 | 1.15 | 0.765 | 0.682
A549 | – | – | – | – | 0.952 | 1.11 | 0.995 | 0.938 | 1.16 | 1.22 | 1.17 | – | – | – | 0.493 | 0.555 | 0.456 | 1.29 | – | 0.686
NCI-H441 | 0.367 | 0.938 | 0.381 | 0.375 | – | – | – | – | 0.809 | 0.579 | 0.688 | 0.555 | 0.604 | 0.622 | 0.479 | 0.539 | 0.508 | 0.568 | 0.73 | 0.491
LCLC-103H | 1.06 | 1.14 | 1.2 | 0.958 | – | – | – | – | – | – | – | 0.452 | 0.428 | 0.431 | 0.546 | 0.702 | 0.476 | – | 0.513 | 0.537
ChaGo-K-1 | 0.871 | 0.988 | 0.896 | 1.06 | – | – | – | – | 0.805 | 0.913 | 0.966 | 0.56 | 0.605 | 0.567 | 0.524 | 0.666 | 0.649 | 0.962 | 0.543 | 0.891
NCI-H1703 | 0.274 | 0.389 | 0.358 | 0.453 | 1.25 | 1.36 | 0.945 | 0.903 | 1.01 | 1.47 | 1.18 | – | – | – | – | 0.26 | 0.253 | 1.48 | – | 0.24
LK-2 | – | – | – | – | 0.883 | 0.864 | 1.13 | 1.04 | 0.777 | 1.1 | 0.821 | 0.198 | 0.189 | 0.215 | 0.475 | 0.977 | 0.628 | 0.769 | 0.145 | 0.46
NCI-H650 | 0.955 | 0.748 | 0.83 | 0.746 | 0.333 | 0.817 | 0.98 | 0.842 | – | – | – | 0.559 | 0.482 | 0.482 | 0.899 | 0.929 | 0.913 | – | 0.512 | 0.871
NCI-H661 | 0.94 | 0.602 | 0.748 | 0.746 | 0.541 | 0.44 | 0.533 | 0.478 | – | – | – | 0.644 | 0.784 | 0.704 | 0.389 | 0.448 | 0.384 | – | 0.725 | 0.325
NCI-H1793 | – | – | – | – | 1.18 | 0.621 | 0.702 | 0.623 | 0.423 | 0.508 | 0.393 | 0.233 | 0.268 | 0.31 | 0.461 | 0.376 | 0.271 | 0.402 | 0.251 | 0.204
NCI-H1395 | – | – | – | – | 1.04 | 0.873 | 0.931 | 0.829 | 1.23 | 1.19 | 1.08 | 0.738 | 0.637 | 0.613 | 0.616 | 0.639 | 0.662 | 1.16 | 0.606 | 0.67
SK-MES-1 | – | – | – | – | 0.455 | 0.501 | 0.452 | 0.421 | 1.28 | 1.18 | 1.18 | 0.596 | 0.588 | 0.537 | 0.416 | 0.321 | 0.4 | 1.3 | 0.642 | 0.356
NCI-H1563 | 0.951 | 0.7 | 0.996 | 0.774 | 1.03 | 0.818 | 0.975 | 0.967 | – | – | – | 0.733 | 0.747 | 0.791 | 0.667 | 0.664 | 0.662 | – | 0.748 | 0.611
IA-LM | 0.842 | 0.898 | 0.82 | 0.789 | 0.842 | 0.902 | 0.837 | 0.783 | 0.811 | 0.858 | 0.732 | – | – | – | 0.348 | 0.362 | 0.237 | 0.896 | – | 0.291
